One compound from patent US20080261999A1, “Azabicycloalkane Derivatives Useful as Nicotinic Acetylcholine Receptor Agonists” (priority 2005, published 2008) can be followed below.

One experiment has as its target T1, human α4β2 nAChRs (Homo sapiens, UniProt P17787+P43681).
T1 construct: expressed in transfected cells; host or cells: HEK-293
Nature of the experiment: Nicotinic receptor radioligand binding SPA, [3H]-epibatidine, α4β2. The protocol:
(§1) Cell pastes from large-scale production of HEK-293 cells expressing human α4β2, or α3β4 nAChRs are homogenised in 4 volumes of the appropriate buffer (50 mM Tris.HCl containing 150 mM NaCl and 5 mM KCl, pH 7.4). The homogenate is centrifuged twice (40,000 g, 10 minutes, 4° C.) and the pellets re-suspended in 4 volumes of Tris.HCl buffer after the first spin and 8 volumes after the second spin. The re-suspended homogenate is centrifuged (100 g, 10 minutes, 4° C.) and the supernatant kept and re-centrifuged (40,000 g, 20 minutes, 4° C.). The pellet is re-suspended in Tris.HCl buffer supplemented with 10% w/v sucrose. The membrane preparation is stored in 1 ml aliquots at −80° C. until required. The protein concentration of the membrane preparation is determined using a BCA protein assay reagent kit.
(§2) 96-well SPA radioligand binding assays are performed in a final volume of 250 μl Tris-HCl buffer (50 mM Tris-HCl, 150 mM NaCl, 5 mM KCl, pH 7.4) with 1 nM ((α4β2) or 2 nM (α3β4) [^3H]-epibatidine (53 Ci/mmol; Amersham); 1 mg/well ((α4β2) or 1.5 mg/well (α3β4) WGA-coated PVT SPA beads (Amersham) and 30 μg/well membrane protein for all 3 assay types. Non-specific binding (<10% for all 3 assay types) is determined using 10 μM epibatidine.
(§3) Reactions are allowed to equilibrate for 2-4 hours at room temperature prior to reading on a Trilux Scintillation counter (Perkin Elmer). […]

In another experiment the test system is rat striatal slices. Nature of the experiment: [3H] Dopamine release assay from rat striatal slices. The class given is cell-based. The protocol:
[^3H] Dopamine Release Assay from Rat Striatal Slices
Release of [^3H]dopamine from rat striatal slices is performed as follows. Male Lister-Hooded rats (250-350 g) are sacrificed by exposure to CO2 followed by cervical dislocation. Striata from 2 rats is dissected and chopped 3 times at 150 μm using a Mcllwain tissue chopper, each time rotating the tissue through 60°. Slices are dispersed in Krebs bicarbonate buffer (118 mM NaCl, 2.4 mM KCl, 2.4 mM CaCl2.2H2O, 1.2 mM KH2PO4, 1.2 mM MgSO4.7H2O, 25 mM NaHCO3, 10 mM glucose, 1 mM ascorbic acid, gassed with 5% CO2/95% O2 for 1 h, pH 7.4) including […] pargyline, and incubated with [^3H]dopamine (50 nM) for 30 minutes at 37° C. […]
Optiphase Supermix (Wallac) scintillation fluid (170 μl) is added to each well of the collection plates prior to plates being heat sealed and radioactivity quantified using a Wallac 1450 Microbeta 96-well plate counter (Wallac Oy, Turku, Finland, counting efficiency 25%). Radioactivity remaining in the slices is measured by digestion of the tissue in 0.2 ml Solvable (Packard Biosciences) for 1 h followed by addition of 0.5 ml isopropyl alcohol and 4.5 ml Hlionic Fluor scintillation fluid (Packard Biosciences). Radioactivity was then quantified using a Wallac 1410 scintillation counter (Wallac Oy, Turku, Finland, counting efficiency 35%). […]

A further experiment has as its target T2, human α3β4 nAChRs (Homo sapiens, UniProt P30926+P32297).
T2 construct: expressed in transfected cells; host or cells: HEK-293
Nature of the experiment: Nicotinic receptor radioligand binding SPA, [3H]-epibatidine, α3β4. To be noted: HEK-293 membranes, 2 nM [3H]-epibatidine. The protocol:
as §1, §2, §3

T1 sequence (P43681 29-627): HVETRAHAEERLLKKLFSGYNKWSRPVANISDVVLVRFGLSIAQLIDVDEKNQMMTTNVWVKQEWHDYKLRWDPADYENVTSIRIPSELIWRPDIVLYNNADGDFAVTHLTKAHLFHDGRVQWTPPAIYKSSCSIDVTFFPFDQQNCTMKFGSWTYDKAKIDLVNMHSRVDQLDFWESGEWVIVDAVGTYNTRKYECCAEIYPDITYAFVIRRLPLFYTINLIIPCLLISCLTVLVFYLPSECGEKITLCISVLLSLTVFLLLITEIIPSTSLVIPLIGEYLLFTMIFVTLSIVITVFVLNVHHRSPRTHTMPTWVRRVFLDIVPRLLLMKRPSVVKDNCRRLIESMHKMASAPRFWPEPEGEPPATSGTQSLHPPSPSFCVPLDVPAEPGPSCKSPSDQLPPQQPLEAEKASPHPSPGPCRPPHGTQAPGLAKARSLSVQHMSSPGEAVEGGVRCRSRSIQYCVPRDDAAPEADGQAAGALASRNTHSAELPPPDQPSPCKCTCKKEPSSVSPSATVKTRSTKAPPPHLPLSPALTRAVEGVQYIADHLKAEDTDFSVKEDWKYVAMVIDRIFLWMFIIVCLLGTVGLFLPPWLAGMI
T1 sequence (P17787 26-502): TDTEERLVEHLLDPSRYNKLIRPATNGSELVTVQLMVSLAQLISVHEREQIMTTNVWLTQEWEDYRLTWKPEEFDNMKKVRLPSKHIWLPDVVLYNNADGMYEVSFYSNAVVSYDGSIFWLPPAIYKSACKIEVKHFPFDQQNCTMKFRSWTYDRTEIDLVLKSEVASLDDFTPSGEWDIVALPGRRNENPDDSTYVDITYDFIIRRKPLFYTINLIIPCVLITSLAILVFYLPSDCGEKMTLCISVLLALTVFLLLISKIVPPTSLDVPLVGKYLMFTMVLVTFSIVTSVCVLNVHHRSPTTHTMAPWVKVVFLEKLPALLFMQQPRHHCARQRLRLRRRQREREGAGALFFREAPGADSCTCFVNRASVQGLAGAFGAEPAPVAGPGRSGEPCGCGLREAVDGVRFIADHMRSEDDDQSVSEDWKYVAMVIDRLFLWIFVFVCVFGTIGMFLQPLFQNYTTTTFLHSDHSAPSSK
T2 sequence (P32297 32-505): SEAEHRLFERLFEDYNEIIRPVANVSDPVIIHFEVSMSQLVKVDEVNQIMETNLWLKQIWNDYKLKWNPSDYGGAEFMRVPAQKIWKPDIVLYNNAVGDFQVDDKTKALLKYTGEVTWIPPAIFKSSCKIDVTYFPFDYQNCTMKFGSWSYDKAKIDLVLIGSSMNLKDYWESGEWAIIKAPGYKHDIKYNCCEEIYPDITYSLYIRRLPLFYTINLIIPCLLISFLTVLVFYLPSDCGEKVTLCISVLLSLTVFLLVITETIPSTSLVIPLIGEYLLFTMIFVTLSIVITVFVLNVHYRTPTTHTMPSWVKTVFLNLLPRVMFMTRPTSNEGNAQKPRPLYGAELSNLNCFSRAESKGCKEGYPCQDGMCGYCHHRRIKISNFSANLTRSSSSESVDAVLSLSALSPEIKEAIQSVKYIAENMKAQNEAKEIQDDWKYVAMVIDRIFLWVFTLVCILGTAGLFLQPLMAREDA
T2 sequence (P30926 22-498): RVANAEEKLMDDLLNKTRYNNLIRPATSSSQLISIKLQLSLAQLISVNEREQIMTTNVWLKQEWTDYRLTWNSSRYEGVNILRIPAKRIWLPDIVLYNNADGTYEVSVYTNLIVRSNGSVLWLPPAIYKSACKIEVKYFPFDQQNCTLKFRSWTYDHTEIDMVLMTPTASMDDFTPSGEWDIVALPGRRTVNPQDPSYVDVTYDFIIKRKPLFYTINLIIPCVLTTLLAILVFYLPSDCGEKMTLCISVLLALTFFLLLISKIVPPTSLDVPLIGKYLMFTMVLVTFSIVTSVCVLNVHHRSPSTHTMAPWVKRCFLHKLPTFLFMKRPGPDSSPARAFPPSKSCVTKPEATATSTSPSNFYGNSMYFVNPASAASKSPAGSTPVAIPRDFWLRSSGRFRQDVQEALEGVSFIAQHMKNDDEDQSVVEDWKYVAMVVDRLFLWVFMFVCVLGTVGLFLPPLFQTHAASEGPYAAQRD

As a reminder, the Ki is the dissociation constant of the complex between target and ligand, obtained from inhibition or displacement. A high value points to weaker binding. Usually EC50 stands for the concentration needed to bring the measured effect to its halfway point. Higher therefore signals a need for much substance. Compound `Fc1cc(C2=CC3CNCC(C2)C3)cc(-c2ccoc2)c1` (centres unmarked) [Example 20] had an inhibition constant Ki on human α4β2 nAChRs (HEK-293 membranes, 1 nM [3H]-epibatidine) of 5.37 nM. Moreover, the “Ki α3β4/Ki α4β2” value at human α4β2 nAChRs (selectivity for α4β2 over α3β4) worked out at 89.2. Besides, in the experiment on rat striatal slices, it took 135 nM to reach a half-maximal effect (EC50) and the “Efficacy Dopamine release %” value was 41.7%. Moreover, affinity at human α3β4 nAChRs was put at a Ki of 479 nM.
